# Entries after “also recorded” stand apart in the source; their conditions may differ.
# What was measured:
# [1] = target: NLRX1 (Bos taurus, UniProt A7MB19); test: Drug/protein binding partner, SPR: NLRX1; set-up: species or system bovine; details: PBMCs
# Method: (§1) To further characterize the direct activity of the compounds of the invention, experiments to identify the drug's direct binding host partners(s) were performed with the aim of identifying the potential biological targets. Bovine primary cells (peripheral blood mononuclear cells [PBMCs] and polymorphonuclear cells [PMN/neutrophils]) and tissue (trachea, lung) protein homogenates were mixed with M9 and the macrolide, gamithromicin as a comparator. Tissue interactions were allowed to form using a heterogeneous assembly method (nematic protein organization technique, NPOT; Inoviem Scientific); and traditional western blots to identify native-structure proteins bound to the compound. Mass spectrometry analysis identified eight proteins involved in the interaction with M9 as compared to gamithromycin. The antibacterial macrolide gamithromycin was used as a comparator to differentiate specific binding to M9. These proteins were considered to be either direct binding partners of the drug or closely involved in the drug:target interaction (Table 6).
# (§2) In order to add further clarity to binding partner identification, surface plasma resonance (SPR) technology was used. […]
# (§3) KD is the equilibrium dissociation constant that was used to present the drug/target affinity. The identified targets associated with drug were measured by surface plasmon resonance (SPR) to define the KD.
# [2] = target: T1, TLR4 (Bos taurus, UniProt Q9GL65); test: Drug/protein binding partner, SPR: TLR4; set-up: species or system bovine; details: PBMCs, Trachea
# T1 sequence (Q9GL65 24-841): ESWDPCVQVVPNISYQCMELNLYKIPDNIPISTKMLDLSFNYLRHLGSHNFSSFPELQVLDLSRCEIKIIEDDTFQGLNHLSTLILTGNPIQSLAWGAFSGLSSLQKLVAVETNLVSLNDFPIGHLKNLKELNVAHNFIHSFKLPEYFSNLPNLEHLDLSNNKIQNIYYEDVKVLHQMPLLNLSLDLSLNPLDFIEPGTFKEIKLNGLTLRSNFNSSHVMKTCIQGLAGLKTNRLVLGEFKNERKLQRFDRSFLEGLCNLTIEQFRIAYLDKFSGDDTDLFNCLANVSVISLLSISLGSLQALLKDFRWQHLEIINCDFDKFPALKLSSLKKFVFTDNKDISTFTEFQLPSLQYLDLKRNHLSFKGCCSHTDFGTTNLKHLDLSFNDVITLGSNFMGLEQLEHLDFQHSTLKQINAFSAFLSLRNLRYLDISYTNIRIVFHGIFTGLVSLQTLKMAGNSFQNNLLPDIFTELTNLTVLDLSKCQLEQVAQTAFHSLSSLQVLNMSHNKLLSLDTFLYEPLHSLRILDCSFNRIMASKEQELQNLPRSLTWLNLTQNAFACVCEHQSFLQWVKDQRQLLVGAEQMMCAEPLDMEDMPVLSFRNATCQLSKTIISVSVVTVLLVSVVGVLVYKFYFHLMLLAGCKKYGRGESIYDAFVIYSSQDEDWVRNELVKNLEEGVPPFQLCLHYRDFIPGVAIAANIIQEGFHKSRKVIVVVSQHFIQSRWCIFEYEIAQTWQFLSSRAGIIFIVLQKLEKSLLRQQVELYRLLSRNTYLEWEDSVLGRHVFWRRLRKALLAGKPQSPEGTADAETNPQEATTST
# Method: as §1, §2, §3
# [3] = tested on: M. haemolytica (strain: OSU-012103-BHI); test: Bovine M. haemolytica intratracheal lung challenge model
# Chain of NLRX1 (A7MB19 1-973): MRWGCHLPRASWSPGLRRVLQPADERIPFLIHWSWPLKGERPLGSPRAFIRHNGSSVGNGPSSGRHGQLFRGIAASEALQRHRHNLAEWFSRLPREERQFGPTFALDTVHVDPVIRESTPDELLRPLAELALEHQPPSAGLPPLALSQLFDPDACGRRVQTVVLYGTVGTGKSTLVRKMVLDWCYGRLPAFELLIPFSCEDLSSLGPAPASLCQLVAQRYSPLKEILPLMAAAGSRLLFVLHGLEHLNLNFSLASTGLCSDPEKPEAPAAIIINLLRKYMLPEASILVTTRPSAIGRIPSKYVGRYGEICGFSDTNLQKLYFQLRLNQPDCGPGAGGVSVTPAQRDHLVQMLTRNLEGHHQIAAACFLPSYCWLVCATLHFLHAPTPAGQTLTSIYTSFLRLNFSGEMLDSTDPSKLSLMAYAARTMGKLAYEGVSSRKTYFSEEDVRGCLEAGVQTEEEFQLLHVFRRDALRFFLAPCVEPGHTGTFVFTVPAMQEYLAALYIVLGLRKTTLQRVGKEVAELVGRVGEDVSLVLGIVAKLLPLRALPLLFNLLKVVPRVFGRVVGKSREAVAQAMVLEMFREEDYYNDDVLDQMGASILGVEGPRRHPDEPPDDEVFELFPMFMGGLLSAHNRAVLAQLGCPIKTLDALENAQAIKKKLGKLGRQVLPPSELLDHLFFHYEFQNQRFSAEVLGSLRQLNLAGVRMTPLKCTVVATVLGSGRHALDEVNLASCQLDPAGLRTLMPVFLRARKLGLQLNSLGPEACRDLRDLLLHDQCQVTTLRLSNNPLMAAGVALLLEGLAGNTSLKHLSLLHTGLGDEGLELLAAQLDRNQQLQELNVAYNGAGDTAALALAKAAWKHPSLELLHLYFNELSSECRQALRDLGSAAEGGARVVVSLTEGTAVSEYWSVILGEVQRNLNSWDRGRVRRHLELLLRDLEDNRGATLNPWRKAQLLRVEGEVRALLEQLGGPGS
structure (smiles),measurement,setting,value
"CCCNC[C@]1(O)[C@H](C)O[C@@H](O[C@H]2[C@H](C)[C@@H](O[C@@H]3O[C@H](C)C[C@H](NC)[C@H]3O)[C@](C)(O)C[C@@H](C)CN[C@H](C)[C@@H](O)[C@](C)(O)[C@@H](CC)OC(=O)[C@@H]2C)C[C@@]1(C)OC [Example M9, (2R,3S,4R,5R,8R,10R,11R,12S,13S,14R)-2-ethyl-3,4,10-trihydroxy-13-(((2R,4R,5S,6S)-5-hydroxy-4-methoxy-4,6-dimethyl-5-((propylamino)methyl)-tetrahydro-2H-pyran-2-yl)oxy)-11-(((2S,3R,4S,6R)-3-hydroxy-6-methyl-4-(methylamino)tetrahydro-2H-pyran-2-yl)oxy)-3,5,8,10,12,14-hexamethyl-1-oxa-6-azacyclopentadecan-15-one]",Interaction KD,[1],Indirect
same,Interaction KD,[2],Indirect
same,Mortality,"[3]; T02: 10 mg/kg subcutaneous Day −1, M. haemolytica challenge Day 0",1/6
same,Mortality,"[3]; T04: 10 mg/kg subcutaneous Day −1, no challenge",0/6
same,IL-6 levels,[3]; bovine M. haemolytica challenge,significantly reduced
same,CD163 expression,"[3]; cattle, monocytes/macrophages in whole blood",suppressed; also recorded: mitigates the pathologic increase
